One assay concerns the target T1, mutant MGL (Homo sapiens, UniProt Q99685, L169S/L176S).
T1 sequence (Q99685 1-303 L169S/L176S): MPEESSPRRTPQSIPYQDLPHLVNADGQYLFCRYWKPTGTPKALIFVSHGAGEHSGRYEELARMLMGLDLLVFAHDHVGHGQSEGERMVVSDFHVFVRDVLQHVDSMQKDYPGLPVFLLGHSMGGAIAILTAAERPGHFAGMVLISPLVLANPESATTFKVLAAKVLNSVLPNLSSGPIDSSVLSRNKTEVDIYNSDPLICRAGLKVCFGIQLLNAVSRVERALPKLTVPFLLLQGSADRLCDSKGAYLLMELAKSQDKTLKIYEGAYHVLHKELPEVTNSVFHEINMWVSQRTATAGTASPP
Nature of the assay: MGL ThermoFluor assay - mutant. The format is binding. Particulars: ThermoFluor concentration-response, read-out: MGL mutant ThermoFluor Kd. In general terms: DSF heats the sample and reads unfolding from a dye or from intrinsic fluorescence.
Consider `O=C(c1ccccc1)N1CCN(C2CN(C(=O)c3cnc(NCc4ccccc4)s3)C2)CC1` [Cpd 50, N-Benzyl-5-({3-[4-(phenylcarbonyl)piperazin-1-yl]azetidin-1-yl}carbonyl)-1,3-thiazol-2-amine], for which the Kd was 10000 nM.
As for `O=C(c1ccccc1)N1CCN(C2CN(C(=O)c3ccc(-n4cccc4)cc3)C2)CC1` [Cpd 28, 1-(Phenylcarbonyl)-4-(1-{[4-(1H-pyrrol-1-yl)phenyl]carbonyl}azetidin-3-yl)piperazine], the Kd was 370 nM.
Still for that read-out and setting: the figure for `O=C(c1ccccc1)N1CCN(C2CN(C(=O)c3ccc(OCc4ccccc4)cc3)C2)CC1` [Cpd 35, 1-(1-{[4-(Benzyloxy)phenyl]carbonyl}azetidin-3-yl)-4-(phenylcarbonyl)piperazine] is 83.3 nM.
Take `COc1cc(C(=O)N2CC(N3CCN(C(=O)c4nccs4)CC3)C2)ccc1-c1ccccc1` [Cpd 1377]: the Kd was 6 nM.
`O=C(c1ccccc1)N1CCN(C2CN(C(=O)c3ccc(NCc4ccc(F)c(C(F)(F)F)c4)cc3)C2)CC1` [Cpd 494, N-[4-Fluoro-3-(trifluoromethyl)benzyl]-4-({3-[4-(phenylcarbonyl)piperazin-1-yl]azetidin-1-yl}carbonyl)aniline]: the Kd was 100 nM.
On to `CCN(CC)c1ccc(C(=O)N2CC(N3CCN(C(=O)c4ccccc4)CC3)C2)cc1` [Cpd 30, N,N-Diethyl-4-({3-[4-(phenylcarbonyl)piperazin-1-yl]azetidin-1-yl}carbonyl)aniline], for which the Kd amounted to 118 nM.
With `O=C(c1ccc(Cc2ccccc2)cc1)N1CC(N2CCN(C(=O)c3ccccc3)C(CO)C2)C1` (centres unmarked) [Cpd 459, [4-{1-[(4-Benzylphenyl)carbonyl]azetidin-3-yl}-1-(phenylcarbonyl)piperazin-2-yl]methanol], the Kd came out at 3330 nM.
For the compound `CC(C)(C)OC(=O)N1CCC(c2ccc(C(=O)N3CC(N4CCN(C(=O)c5ccccc5)CC4)C3)cc2)CC1` [Cpd 109, tert-Butyl 4-[4-({3-[4-(phenylcarbonyl)piperazin-1-yl]azetidin-1-yl}carbonyl)phenyl]piperidine-1-carboxylate], the Kd was 33.3 nM.
On the same count and under the same terms, the same measure for `O=C(c1ccccc1)N1CCN(C2CN(C(=O)c3ccc(-c4ccc(Cl)cc4)cc3)C2)CC1` [Cpd 78, 1-{1-[(4′-Chlorobiphenyl-4-yl)carbonyl]azetidin-3-yl}-4-(phenylcarbonyl)piperazine]: 80 nM.
Regarding `Cn1c2ccccc2c2cc(C(=O)N3CC(N4CCN(C(=O)c5ccccc5)CC4)C3)ccc21` [Cpd 51, 9-Methyl-3-({3-[4-(phenylcarbonyl)piperazin-1-yl]azetidin-1-yl}carbonyl)-9H-carbazole], the Kd came out at 250 nM.
Take `O=C(c1ccc(-c2cccc(Cl)c2)cc1)N1CC(N2CCN(C(=O)c3nccs3)CC2)C1` [Cpd 162, 1-{1-[(3′-Chlorobiphenyl-4-yl)carbonyl]azetidin-3-yl}-4-(1,3-thiazol-2-ylcarbonyl)piperazine]: the Kd is 0.67 nM.
For the compound `O=C(c1ccccc1)N1CCN(C2CN(C(=O)c3ccc(-c4ccccc4Cl)cc3)C2)CC1` [Cpd 36, 1-{1-[(2′-Chlorobiphenyl-4-yl)carbonyl]azetidin-3-yl}-4-(phenylcarbonyl)piperazine], the Kd was found to be 37 nM.
`O=C(c1ccc(-c2ccccc2)cc1)N1CCN(C2CN(C(=O)c3nccs3)C2)C(c2ccccc2)C1` (centres unmarked) [Cpd 1401, 4-(Biphenyl-4-ylcarbonyl)-2-phenyl-1-[1-(1,3-thiazol-2-ylcarbonyl)azetidin-3-yl]piperazine]: the Kd worked out at 1250 nM.
`O=C(c1ccccc1)N1CCN(C2CN(C(=O)c3ccc(Cc4ccccc4)cc3)C2)C(CO)C1` (centres unmarked) [Cpd 457, [1-{1-[(4-Benzylphenyl)carbonyl]azetidin-3-yl}-4-(phenylcarbonyl)piperazin-2-yl]methanol]: the dissociation constant (Kd) was determined as 4820 nM.
With `O=C(c1ccc(-c2ccccc2)cc1)N1CC(N2CCN(C(=O)c3ccc(Br)s3)CC2)C1` [Cpd 15, 1-[1-(Biphenyl-4-ylcarbonyl)azetidin-3-yl]-4-[(5-bromothiophen-2-yl)carbonyl]piperazine], the Kd worked out at 286 nM.
`O=C(c1ccc2c(ccn2-c2ncc(F)cn2)c1)N1CC(N2CCN(C(=O)c3cscn3)CC2)C1` [Cpd 1248, 1-(5-Fluoropyrimidin-2-yl)-5-({3-[4-(1,3-thiazol-4-ylcarbonyl)piperazin-1-yl]azetidin-1-yl}carbonyl)-1H-indole]: the Kd was determined as 43 nM.
`O=C(c1ccc(-c2ccccc2)cc1)N1CC(N2CCN(C(=O)c3ccccc3)C(CO)C2)C1` (centres unmarked) [Cpd 460, {4-[1-(Biphenyl-4-ylcarbonyl)azetidin-3-yl]-1-(phenylcarbonyl)piperazin-2-yl}methanol]: the Kd came out at 9100 nM.
Take `O=C(c1ccc(-c2ccccc2)cc1)N1CC(N2CCN(C(=O)c3nccs3)C(c3ccccc3)C2)C1` (centres unmarked) [Cpd 1404, 4-[1-(Biphenyl-4-ylcarbonyl)azetidin-3-yl]-2-phenyl-1-(1,3-thiazol-2-ylcarbonyl)piperazine]: the Kd was over 31200 nM.
On the same count and under the same terms, the same measure for `O=C(c1ccccc1)N1CCN(C2CN(C(=O)c3ccc(O[C@H]4CCN(C(=O)N5CCCC5)C4)c(I)c3)C2)CC1` [Cpd 450, 1-{1-[(3-Iodo-4-{[(3S)-1-(pyrrolidin-1-ylcarbonyl)pyrrolidin-3-yl]oxy}phenyl)carbonyl]azetidin-3-yl}-4-(phenylcarbonyl)piperazine]: 50 nM; for `CC(C)(C)OC(=O)Nc1ccc(C(=O)N2CC(N3CCN(C(=O)c4ccccc4)CC3)C2)cc1` [Cpd 496, tert-Butyl [4-({3-[4-(phenylcarbonyl)piperazin-1-yl]azetidin-1-yl}carbonyl)phenyl]carbamate]: 287 nM.
Take `O=C(c1ccc(-c2ccccc2)cc1)N1CC(N2CCN(C(=O)c3nccs3)CC2c2ccccc2)C1` (centres unmarked) [Cpd 114]: the Kd was found to be 3.33 nM.
Same read-out and setting: the figure for `O=C(Nc1cccc(C(=O)N2CC(N3CCN(C(=O)c4ccccc4)CC3)C2)c1)C1CCCCC1` [Cpd 539, N-[3-({3-[4-(Phenylcarbonyl)piperazin-1-yl]azetidin-1-yl}carbonyl)phenyl]cyclohexanecarboxamide] is over 31200 nM.
In the case of `O=C(c1ccccc1)N1CCN(C2CN(C(=O)c3ccc(C4CCCCC4)cc3)C2)CC1` [Cpd 1, 1-{1-[(4-Cyclohexylphenyl)carbonyl]azetidin-3-yl}-4-(phenylcarbonyl)-piperazine], the Kd is 5.9 nM.
For the compound `CS(=O)(=O)c1ccc(C(=O)N2CC(N3CCN(C(=O)c4ccccc4)CC3)C2)cc1` [Cpd 472, 1-(1-{[4-(Methylsulfonyl)phenyl]carbonyl}azetidin-3-yl)-4-(phenylcarbonyl)piperazine], the Kd amounted to 6670 nM.
Take `O=C(c1ccccc1)N1CCN(C2CN(C(=O)c3nc(-c4ccccc4)oc3C(F)(F)F)C2)CC1` [Cpd 625, 1-(Phenylcarbonyl)-4-(1-{[2-phenyl-5-(trifluoromethyl)-1,3-oxazol-4-yl]carbonyl}azetidin-3-yl)piperazine]: the Kd was over 31200 nM.
In the case of `O=C(c1cncc(-c2ccccc2)c1)N1CC(N2CCN(C(=O)c3cscn3)CC2)C1` [Cpd 169], the dissociation constant (Kd) stood at 30300 nM.
Consider `O=C(/C=C/c1ccccc1Cl)N1CC(N2CCN(C(=O)c3ccccc3)CC2)C1` [Cpd 103, 1-{1-[(2E)-3-(2-Chlorophenyl)prop-2-enoyl]azetidin-3-yl}-4-(phenylcarbonyl)piperazine], for which the dissociation constant Kd is 6250 nM.

The same assay, now with this note: ThermoFluor thermal stability binding assay, read-out: MGL mutant ThermoFluor Kd.
Consider `Cc1cc(C(=O)N2CC(N3CCN(C(=O)c4cscn4)CC3)C2)ccc1-c1ccc(Cl)c(C(F)(F)F)c1` [Cpd 258, 1-(1-{[4′-Chloro-2-methyl-3′-(trifluoromethyl)biphenyl-4-yl]carbonyl}azetidin-3-yl)-4-(1,3-thiazol-4-ylcarbonyl)piperazine], for which the equilibrium dissociation constant (Kd) is 3.3 nM.
As for `O=C(c1ccc(-c2ccccc2)cc1)N1CC(N2CCN(C(=O)C3CCCC3)CC2)C1` [Cpd 1398], the dissociation constant (Kd) worked out at 182 nM.
Regarding `Cc1cc(C(=O)N2CC(N3CCN(C(=O)c4nccs4)CC3)C2)ccc1-c1cccc(C(F)(F)F)c1` [Cpd 241, 1-(1-{[2-Methyl-3′-(trifluoromethyl)biphenyl-4-yl]carbonyl}azetidin-3-yl)-4-(1,3-thiazol-2-ylcarbonyl)piperazine], the dissociation constant (Kd) is 0.5 nM.
The same measure, in the same setting: the figure for `O=C(/C=C/c1ccccc1Cl)N1CC(N2CCN(C(=O)c3nccs3)CC2)C1` [Cpd 295, 1-{1-[(2E)-3-(2-Chlorophenyl)prop-2-enoyl]azetidin-3-yl}-4-(1,3-thiazol-2-ylcarbonyl)piperazine] is 833 nM; for `O=C(c1ccc2c(c1)CCCN2c1ccccc1)N1CC(N2CCN(C(=O)c3nccs3)CC2)C1` [Cpd 372, 1-Phenyl-6-({3-[4-(1,3-thiazol-2-ylcarbonyl)piperazin-1-yl]azetidin-1-yl}carbonyl)-1,2,3,4-tetrahydroquinoline] it is 49.4 nM.
With `O=C(c1ccccc1)N1CCN(C2CN(C(=O)c3ccc4c(ccn4S(=O)(=O)c4ccccc4)c3)C2)CC1` [Cpd 130], the Kd came to 250 nM.
`O=C(c1ccc(-c2ccccc2)cc1)N1CC(N2CCN(C(=O)c3cscn3)C(c3ccccc3)C2)C1` (centres unmarked) [Cpd 1481]: the Kd is over 31200 nM.
Regarding `O=C(c1ccccc1)N1CCN(C2CN(C(=O)c3ccc(OCc4ccc5ccccc5n4)cc3)C2)CC1` [Cpd 560], the Kd turned out to be 652 nM.
Still for that read-out and setting: the figure for `O=C(c1nccs1)N1CCN(C2CN(C(=O)c3cccc4nc(Cc5cccc(F)c5)[nH]c34)C2)CC1` [Cpd 990] is 1000 nM; for `Cc1cc(-c2cccc(C(F)(F)F)c2)ccc1C(=O)N1CC(N2CCN(C(=O)c3ccccc3)CC2)C1` [Cpd 238, 1-(1-{[3-Methyl-3′-(trifluoromethyl)biphenyl-4-yl]carbonyl}azetidin-3-yl)-4-(phenylcarbonyl)piperazine] it is 33.3 nM.
As to `CC(C)(C)OC(=O)N1CCC(c2cccc(C(=O)N3CC(N4CCN(C(=O)c5ccccc5)CC4)C3)c2)CC1` [Cpd 538], the Kd turned out to be 2590 nM.

As usually defined, the Kd is the concentration at which binding is half-saturated.

The record behind these values is patent US8362000B2, “Azetidinyl diamides as monoacylglycerol lipase inhibitors” (Janssen Pharmaceutica NV, priority 2009, dated 2013).
